ChEMBL document CHEMBL1201862, “PubChem BioAssay data set” (2004)
Activity calls are given as the source filed them.

Key:
[1] = enhancers of respiration in Yfh1-depleted yeast, dose response, Friedreich's ataxia, plus single-dose screen (AID 1465); type: functional;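 also: yeast depleted of Yfh1p frataxin homolog grown on glycerol needing respiration; WST-1 tetrazolium dye reduction as measure of cellular dehydrogenase metabolic activity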
[2] = biological target: Prothrombin (Bos taurus, UniProt P00735); assay: thrombin inhibition, dose response, biochemical, fluorescence polarization, uHTS hits (AID 602369); type: functional
[3] = biological target: 26S proteasome non-ATPase regulatory subunit 14 (Homo sapiens, UniProt O00487); assay: inhibition of proteasome subunit RPN11 – biochemical, fluorescence polarization, uHTS hits, confirmation (AID 602368); type: functional
26S proteasome non-ATPase regulatory subunit 14, sequence (O00487 whole entry): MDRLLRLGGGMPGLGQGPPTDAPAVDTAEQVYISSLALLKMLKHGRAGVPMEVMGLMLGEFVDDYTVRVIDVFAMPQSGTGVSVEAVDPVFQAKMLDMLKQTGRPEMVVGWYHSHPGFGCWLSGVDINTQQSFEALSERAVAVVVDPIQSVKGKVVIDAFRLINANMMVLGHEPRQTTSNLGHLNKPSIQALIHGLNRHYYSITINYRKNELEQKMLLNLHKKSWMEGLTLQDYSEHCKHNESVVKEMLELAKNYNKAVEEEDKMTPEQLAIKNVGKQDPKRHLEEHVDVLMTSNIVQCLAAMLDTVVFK

[4] = biological target: 72 kDa type IV collagenase (Homo sapiens, UniProt P08253); assay: Dose Response validation of uHTS RPN11 inhibitor hits using a MMP-2 Fluorescence assay.; type: functional
[5] = biological target: Sphingosine 1-phosphate receptor 2 (Homo sapiens, UniProt O95136); assay: Dose Response Cell Based Assay for Agonists of the S1P2 Receptor of Purchased Analogues. [Related pubchem assays: 729, 843, 854, 736 ]; type: functional
Sphingosine 1-phosphate receptor 2, sequence (O95136 whole entry): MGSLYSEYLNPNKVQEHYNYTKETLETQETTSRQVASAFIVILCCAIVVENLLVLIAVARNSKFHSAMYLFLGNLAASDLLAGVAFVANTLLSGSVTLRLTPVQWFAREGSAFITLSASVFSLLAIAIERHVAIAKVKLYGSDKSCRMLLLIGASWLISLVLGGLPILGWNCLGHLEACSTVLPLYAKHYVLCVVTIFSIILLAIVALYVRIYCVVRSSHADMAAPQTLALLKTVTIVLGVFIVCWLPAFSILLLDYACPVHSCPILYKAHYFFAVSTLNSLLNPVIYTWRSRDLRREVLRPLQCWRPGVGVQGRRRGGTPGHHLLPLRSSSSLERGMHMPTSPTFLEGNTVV

[6] = A High Throughput Confirmatory Assay used to Identify Novel Compounds that Inhibit Mycobacterium Tuberculosis in the absence of Glycerol.; type: functional
[7] = microbe, parasite or virus in culture; type: functional; conditions: Mycobacterium tuberculosis
[8] = biological target: Epstein-Barr nuclear antigen 1 (Epstein-Barr virus (strain B95-8) (HHV-4) (Human herpesvirus 4), UniProt P03211); assay: EBNA-1 inhibitors, dose response, biochemical, fluorescence polarization, 1536-well (AID 2381); design: species or system human gammaherpesvirus 4;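 also: fluorescence polarization of a Cy5 DNA probe bound by EBNA-1 protein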
Epstein-Barr nuclear antigen 1, sequence (P03211 whole entry): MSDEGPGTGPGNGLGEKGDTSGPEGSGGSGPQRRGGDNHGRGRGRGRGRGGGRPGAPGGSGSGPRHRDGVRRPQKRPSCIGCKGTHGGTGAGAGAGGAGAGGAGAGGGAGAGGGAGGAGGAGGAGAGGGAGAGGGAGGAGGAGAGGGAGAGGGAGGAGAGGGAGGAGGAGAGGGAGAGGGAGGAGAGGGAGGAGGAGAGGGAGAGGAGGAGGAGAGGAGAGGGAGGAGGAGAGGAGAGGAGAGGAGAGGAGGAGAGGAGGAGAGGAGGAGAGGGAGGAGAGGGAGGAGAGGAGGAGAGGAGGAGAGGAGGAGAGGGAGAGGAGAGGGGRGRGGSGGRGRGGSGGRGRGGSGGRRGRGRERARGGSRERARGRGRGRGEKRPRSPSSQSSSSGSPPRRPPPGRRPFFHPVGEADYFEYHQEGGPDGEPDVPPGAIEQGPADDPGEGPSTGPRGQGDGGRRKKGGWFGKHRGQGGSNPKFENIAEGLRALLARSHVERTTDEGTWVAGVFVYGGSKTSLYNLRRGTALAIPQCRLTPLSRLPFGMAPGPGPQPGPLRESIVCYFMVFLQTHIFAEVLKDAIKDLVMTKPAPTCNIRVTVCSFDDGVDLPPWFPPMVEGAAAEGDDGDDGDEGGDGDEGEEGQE

[9] = biological target: Lytic switch protein BZLF1 (Epstein-Barr virus (strain B95-8) (HHV-4) (Human herpesvirus 4), UniProt P03206); assay: EBV ZTA inhibitors, dose response, counter-screen for EBNA-1 inhibitor project, biochemical, fluorescence polarization, Epstein-Barr virus, 1536-well (AID 2377); design: species or system human gammaherpesvirus 4;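 also: fluorescence polarization of Cy5-labelled ZRE DNA probe bound by purified Zta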
Lytic switch protein BZLF1, sequence (P03206 whole entry): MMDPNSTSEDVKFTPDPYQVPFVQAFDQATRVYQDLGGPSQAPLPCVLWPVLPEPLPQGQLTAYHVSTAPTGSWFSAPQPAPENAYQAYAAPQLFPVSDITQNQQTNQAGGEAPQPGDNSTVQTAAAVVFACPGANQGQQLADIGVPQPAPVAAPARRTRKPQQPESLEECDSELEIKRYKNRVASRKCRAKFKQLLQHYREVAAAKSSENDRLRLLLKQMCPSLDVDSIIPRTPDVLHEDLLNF

[10] = Luminescence Cell-Based Dose Confirmation to Identify Activators of 5'UTR Stem-Loop Driven Alpha-Synuclein mRNA Translation in H4 Neuroglioblastoma Cells. [Related pubchem assays: 1829 (Project Summary), 1814 (Primary HTS)]; type: functional
[11] = Luminescence Cell-Based Dose Response HTS to Identify Activators of Luciferase Translation or Activity in H4 […] Cells. [Related pubchem assays: 1829 (Project Summary), 1814 (Primary HTS)]; type: functional
[12] = system: HT-1080; assay: cytotoxicity in HT1080 fibrosarcoma cells, cell-based, fluorescence readout (AID 620); type: functional; conditions: Homo sapiens
[13] = biological target: Luciferin 4-monooxygenase (Photinus pyralis, UniProt P08659); assay: Counter Screen for Luciferase-based Assay Positives. [Related pubchem assays: 620, 618, 411 ]
Luciferin 4-monooxygenase, sequence (P08659 whole entry): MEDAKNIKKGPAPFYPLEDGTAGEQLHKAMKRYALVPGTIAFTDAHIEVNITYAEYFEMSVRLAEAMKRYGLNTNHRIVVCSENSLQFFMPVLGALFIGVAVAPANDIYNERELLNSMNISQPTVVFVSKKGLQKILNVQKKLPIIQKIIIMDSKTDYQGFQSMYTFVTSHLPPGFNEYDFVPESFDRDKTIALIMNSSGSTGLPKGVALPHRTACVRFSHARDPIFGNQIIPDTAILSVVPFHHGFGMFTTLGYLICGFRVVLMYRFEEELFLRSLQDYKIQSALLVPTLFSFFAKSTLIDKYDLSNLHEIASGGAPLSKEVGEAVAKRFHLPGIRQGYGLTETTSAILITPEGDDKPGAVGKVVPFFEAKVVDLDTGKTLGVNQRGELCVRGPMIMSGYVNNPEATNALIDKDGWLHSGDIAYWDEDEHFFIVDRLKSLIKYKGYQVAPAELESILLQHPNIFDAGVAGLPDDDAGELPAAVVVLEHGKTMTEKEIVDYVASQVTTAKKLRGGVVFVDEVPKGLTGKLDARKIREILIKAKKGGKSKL

[14] = biological target: T1, Calpain-2 catalytic subunit (Sus scrofa, UniProt P43367); assay: pig calpain II inhibitor potency, dose response, biochemical, fluorogenic peptide substrate (AID 1420); type: functional
T1 sequence (P43367 whole entry): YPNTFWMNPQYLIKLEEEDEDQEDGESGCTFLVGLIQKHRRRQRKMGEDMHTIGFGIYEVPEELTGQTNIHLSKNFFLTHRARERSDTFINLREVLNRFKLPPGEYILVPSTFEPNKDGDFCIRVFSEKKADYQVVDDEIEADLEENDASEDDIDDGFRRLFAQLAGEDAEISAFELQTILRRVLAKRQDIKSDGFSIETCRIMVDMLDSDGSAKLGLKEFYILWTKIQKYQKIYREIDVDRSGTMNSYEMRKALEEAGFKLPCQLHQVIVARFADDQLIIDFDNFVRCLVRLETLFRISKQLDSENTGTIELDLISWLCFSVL

[15] = Luminescence Cell-Based Dose Response to Identify Activators of Luciferase Translation or Activity in H4-C Neuroglioblastoma Cells. [Related pubchem assays: 1829 (Project Summary), 1814 (Primary HTS)]; type: functional
[16] = Luminescence Cell-Based Dose Response to Identify Activators of 5'UTR Stem-Loop Driven Prion Protein mRNA Translation in H4-C Neuroglioblastoma Cells. [Related pubchem assays: 1829 (Project Summary), 1814 (Primary HTS)]; type: functional
[17] = biological target: T2, Rac GTPase-activating protein 1 (Homo sapiens, UniProt Q9H0H5); assay: MgcRacGAP GTPase-activating activity inhibitors, confirmation, biochemical, ADP Hunter fluorescence, primary and confirmatory (AID 624330); type: functional
T2 sequence (Q9H0H5 whole entry): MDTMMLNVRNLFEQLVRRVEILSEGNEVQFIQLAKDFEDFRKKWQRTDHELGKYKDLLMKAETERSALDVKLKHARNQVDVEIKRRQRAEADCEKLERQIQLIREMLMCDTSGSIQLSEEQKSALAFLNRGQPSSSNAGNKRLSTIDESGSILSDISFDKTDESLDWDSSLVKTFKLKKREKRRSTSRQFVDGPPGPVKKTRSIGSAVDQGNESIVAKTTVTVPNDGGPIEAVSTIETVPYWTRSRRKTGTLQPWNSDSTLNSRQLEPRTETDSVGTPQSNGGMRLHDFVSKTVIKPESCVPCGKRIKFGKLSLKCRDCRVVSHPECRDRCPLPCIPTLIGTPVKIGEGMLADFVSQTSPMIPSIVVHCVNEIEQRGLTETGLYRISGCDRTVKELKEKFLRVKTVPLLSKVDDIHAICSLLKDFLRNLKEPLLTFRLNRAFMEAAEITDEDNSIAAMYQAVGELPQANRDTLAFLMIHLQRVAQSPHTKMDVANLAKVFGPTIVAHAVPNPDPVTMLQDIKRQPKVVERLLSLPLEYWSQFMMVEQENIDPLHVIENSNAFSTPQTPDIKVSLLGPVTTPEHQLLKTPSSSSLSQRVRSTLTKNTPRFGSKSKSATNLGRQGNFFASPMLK

[18] = biological target: T3, NADPH oxidase 1 (Homo sapiens, UniProt Q9Y5S8); assay: Luminescence-based cell-based dose response assay to identify inhibitors of NADPH oxidase 1 (NOX1).; type: functional
T3 sequence (Q9Y5S8 whole entry): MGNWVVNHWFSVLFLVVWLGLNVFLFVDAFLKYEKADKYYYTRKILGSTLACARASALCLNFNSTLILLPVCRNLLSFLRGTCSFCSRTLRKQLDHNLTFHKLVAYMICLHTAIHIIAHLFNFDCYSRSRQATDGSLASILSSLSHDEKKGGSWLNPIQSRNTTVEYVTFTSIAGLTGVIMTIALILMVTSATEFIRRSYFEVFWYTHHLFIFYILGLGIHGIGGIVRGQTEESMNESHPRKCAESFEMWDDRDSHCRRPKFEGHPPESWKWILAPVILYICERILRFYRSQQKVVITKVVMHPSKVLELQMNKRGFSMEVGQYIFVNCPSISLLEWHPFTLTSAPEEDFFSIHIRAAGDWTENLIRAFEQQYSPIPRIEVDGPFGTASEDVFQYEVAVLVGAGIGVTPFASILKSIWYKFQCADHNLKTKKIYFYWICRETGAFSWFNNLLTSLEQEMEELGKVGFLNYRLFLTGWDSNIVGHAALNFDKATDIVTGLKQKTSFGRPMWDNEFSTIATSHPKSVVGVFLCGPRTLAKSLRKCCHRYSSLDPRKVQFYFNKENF

[19] = biological target: T3, NADPH oxidase 1; type: functional, cell-based
[20] = biological target: Cytochrome P450 2C9 (Homo sapiens, UniProt P11712)
[21] = biological target: T4, Streptokinase A (Streptococcus pyogenes serotype M1, UniProt P10520); assay: S. pyogenes streptokinase expression inhibitors, potency, dose response, plasminogen activation absorbance, OD405 (AID 1914); type: functional, Streptococcus pyogenes M1 GAS;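 also: secreted streptokinase activity via plasminogen activation per viability signal from cell pellet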
T4 sequence (P10520 whole entry): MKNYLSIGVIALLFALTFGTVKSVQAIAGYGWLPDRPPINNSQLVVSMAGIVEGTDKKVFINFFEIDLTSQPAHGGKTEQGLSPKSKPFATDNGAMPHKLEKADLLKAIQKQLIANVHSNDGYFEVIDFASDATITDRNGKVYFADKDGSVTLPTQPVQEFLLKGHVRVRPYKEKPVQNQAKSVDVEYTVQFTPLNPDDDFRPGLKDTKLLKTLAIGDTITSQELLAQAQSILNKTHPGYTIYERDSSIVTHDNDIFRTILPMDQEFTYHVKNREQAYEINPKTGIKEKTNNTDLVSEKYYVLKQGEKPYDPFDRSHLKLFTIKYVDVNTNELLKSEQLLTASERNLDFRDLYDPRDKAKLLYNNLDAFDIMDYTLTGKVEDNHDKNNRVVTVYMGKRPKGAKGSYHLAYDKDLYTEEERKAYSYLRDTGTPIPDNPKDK

[22] = system: Streptococcus sp. 'group A'; assay: growth inhibition of control SK(-) GAS strain, dose response, counter-screen for streptokinase expression inhibitor project, luminescence, kanamycin, BacTiterGlo, confirmation (AID 1900); type: functional, organism-based
[23] = Jurkat T cell cytotoxicity, dose response, cytotoxicity control for P. falciparum gametocyte viability project, luminescence (AID 1117277); type: functional, cell-based;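 also: potency reflects loss of cellular ATP meaning fewer viable cells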
[24] = biological target: T4, Streptokinase A; assay: Absorbance Microorganism-Based Dose Response Follow up to Identify Inhibitors of Streptokinase Expression. [Related pubchem assays: 1677 (Project Summary), 1915, 1914, 1902 (Retest at Dose), 1900 (Counter Screen), 1662 (Primary HTS)]; type: functional, Streptococcus pyogenes M1 GAS
[25] = system: Streptococcus; assay: Group A Streptococcus viability loss, dose response, counter-screen for streptokinase expression inhibitor project, luminescence, BacTiterGlo (AID 1915); type: functional, organism-based;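 also: potency for reduction of bacterial viability or growth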
[26] = system: Streptococcus; assay: Luminescence Microorganism-Based Dose Response Follow up to Identify Compounds Cytotoxic to Streptococcus. [Related pubchem assays: 1677 (Project Summary), 1915, 1914, 1902 (Retest at Dose), 1900 (Counter Screen), 1662 (Primary HTS)]; type: functional, organism-based
[27] = P. falciparum late gametocyte killing, dose response, luminescence (AID 1117278); type: functional, cell-based;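 also: gametocytes exposed to compound for 24 hours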
[28] = Absorbance Microorganism-Based Dose Response Follow up to Identify Inhibitors of Streptokinase Expression. [Related pubchem assays: 1677 (Project Summary), 1915, 1914, 1902 (Retest at Dose), 1900 (Counter Screen), 1662 (Primary HTS)]
[29] = biological target: 5-hydroxytryptamine receptor 1E (Homo sapiens, UniProt P28566); assay: Counterscreen assay for S1P3 antagonists: Dose response cell-based high throughput screening assay to identify antagonists of the 5-Hydroxytryptamine Receptor Subtype 1E (5HT1E). [Related pubchem assays: 1429, 485 ]; type: functional
5-hydroxytryptamine receptor 1E, sequence (P28566 whole entry): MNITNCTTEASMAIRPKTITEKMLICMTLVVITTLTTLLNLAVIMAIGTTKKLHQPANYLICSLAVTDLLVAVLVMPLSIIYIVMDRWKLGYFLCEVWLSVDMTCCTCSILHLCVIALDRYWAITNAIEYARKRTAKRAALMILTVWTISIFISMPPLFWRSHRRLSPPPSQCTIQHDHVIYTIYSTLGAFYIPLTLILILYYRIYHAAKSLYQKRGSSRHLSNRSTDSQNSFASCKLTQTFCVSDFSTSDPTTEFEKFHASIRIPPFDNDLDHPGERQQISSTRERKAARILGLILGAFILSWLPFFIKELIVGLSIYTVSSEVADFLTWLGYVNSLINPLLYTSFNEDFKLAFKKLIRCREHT

[30] = biological target: Sphingosine 1-phosphate receptor 3 (Homo sapiens, UniProt Q99500); assay: Dose response cell-based high throughput screening assay for antagonists of the Sphingosine 1-Phosphate Receptor 3 (S1P3). [Related pubchem assays: 1429, 485 ]; type: functional
Sphingosine 1-phosphate receptor 3, sequence (Q99500 whole entry, the tested form may be a part): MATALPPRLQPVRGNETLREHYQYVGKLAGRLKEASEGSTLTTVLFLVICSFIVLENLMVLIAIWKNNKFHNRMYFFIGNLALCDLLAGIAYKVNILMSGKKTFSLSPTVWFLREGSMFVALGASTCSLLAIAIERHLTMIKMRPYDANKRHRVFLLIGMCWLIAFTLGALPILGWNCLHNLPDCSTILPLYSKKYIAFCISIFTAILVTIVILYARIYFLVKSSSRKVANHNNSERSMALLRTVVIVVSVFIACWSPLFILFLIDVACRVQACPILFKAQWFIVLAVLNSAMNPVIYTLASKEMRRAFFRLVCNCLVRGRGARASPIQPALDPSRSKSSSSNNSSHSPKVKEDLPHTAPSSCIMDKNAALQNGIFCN

[31] = off-target signal loss in HeLa-CEM21 co-culture – HeLa F-luc CTL cells, cherry-picked, counter-screen for HIV-1 Env fusion inhibitor project, dose response (AID 652040); type: functional, cell-based;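 also: potency for signal decrease marking cytotoxic or nonspecific inhibition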
[32] = biological target: Ion channel NompC (Danio rerio, UniProt Q7T1G6); assay: Fluorescence counterscreen assay for TRPML3 agonists: dose response cell-based high-throughput screening assay to identify agonists of the transient receptor potential channel N1 (TRPN1). [Related pubchem assays: 1526, 1424, 1448 ]; type: functional
Ion channel NompC, sequence (Q7T1G6 whole entry): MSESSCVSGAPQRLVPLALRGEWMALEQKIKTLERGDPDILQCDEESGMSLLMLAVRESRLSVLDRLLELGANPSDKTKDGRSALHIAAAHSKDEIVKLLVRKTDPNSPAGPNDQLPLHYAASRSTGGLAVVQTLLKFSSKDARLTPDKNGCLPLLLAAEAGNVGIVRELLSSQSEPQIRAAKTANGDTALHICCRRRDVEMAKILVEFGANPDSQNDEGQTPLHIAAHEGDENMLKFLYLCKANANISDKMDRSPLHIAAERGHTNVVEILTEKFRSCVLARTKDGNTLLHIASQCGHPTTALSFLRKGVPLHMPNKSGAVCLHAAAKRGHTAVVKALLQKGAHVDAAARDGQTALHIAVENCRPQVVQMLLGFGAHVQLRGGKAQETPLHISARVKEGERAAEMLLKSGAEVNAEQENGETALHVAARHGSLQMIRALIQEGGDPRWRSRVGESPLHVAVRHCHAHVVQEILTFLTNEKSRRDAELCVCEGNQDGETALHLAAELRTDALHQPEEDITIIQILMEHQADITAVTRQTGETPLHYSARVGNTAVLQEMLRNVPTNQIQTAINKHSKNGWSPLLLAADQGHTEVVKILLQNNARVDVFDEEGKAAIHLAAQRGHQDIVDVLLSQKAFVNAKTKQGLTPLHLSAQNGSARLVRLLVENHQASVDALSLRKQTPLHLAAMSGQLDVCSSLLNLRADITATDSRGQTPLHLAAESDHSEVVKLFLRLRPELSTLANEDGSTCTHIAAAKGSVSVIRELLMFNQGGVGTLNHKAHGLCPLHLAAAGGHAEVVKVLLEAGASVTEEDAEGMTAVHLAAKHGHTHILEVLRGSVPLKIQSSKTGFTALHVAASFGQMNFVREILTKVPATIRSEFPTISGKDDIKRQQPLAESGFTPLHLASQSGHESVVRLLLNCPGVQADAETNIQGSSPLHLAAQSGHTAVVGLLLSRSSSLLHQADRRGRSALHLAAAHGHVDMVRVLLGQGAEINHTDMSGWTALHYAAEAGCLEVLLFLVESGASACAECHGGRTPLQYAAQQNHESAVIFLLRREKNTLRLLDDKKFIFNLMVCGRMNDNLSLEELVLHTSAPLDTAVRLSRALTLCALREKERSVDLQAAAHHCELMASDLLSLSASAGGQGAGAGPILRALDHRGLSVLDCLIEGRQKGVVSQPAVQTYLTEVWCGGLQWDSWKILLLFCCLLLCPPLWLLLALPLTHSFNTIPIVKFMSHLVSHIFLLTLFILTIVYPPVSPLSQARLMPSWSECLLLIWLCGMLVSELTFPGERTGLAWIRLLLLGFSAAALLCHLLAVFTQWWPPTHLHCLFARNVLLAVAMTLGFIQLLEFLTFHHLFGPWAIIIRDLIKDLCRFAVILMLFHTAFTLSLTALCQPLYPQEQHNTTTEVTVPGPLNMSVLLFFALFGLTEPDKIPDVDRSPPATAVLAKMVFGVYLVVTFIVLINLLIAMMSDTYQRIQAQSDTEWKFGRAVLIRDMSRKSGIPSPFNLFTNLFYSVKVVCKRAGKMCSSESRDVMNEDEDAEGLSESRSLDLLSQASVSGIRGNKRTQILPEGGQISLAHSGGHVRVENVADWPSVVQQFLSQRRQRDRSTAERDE

[33] = biological target: Mucolipin-3 (Homo sapiens, UniProt Q8TDD5); assay: Dose response cell-based high-throughput screening assay for agonists of the transient receptor potential channel ML3 (TRPML3). [Related pubchem assays: 1526, 1424, 1448 ]; type: functional
Mucolipin-3, sequence (Q8TDD5 whole entry, the tested form may be a part): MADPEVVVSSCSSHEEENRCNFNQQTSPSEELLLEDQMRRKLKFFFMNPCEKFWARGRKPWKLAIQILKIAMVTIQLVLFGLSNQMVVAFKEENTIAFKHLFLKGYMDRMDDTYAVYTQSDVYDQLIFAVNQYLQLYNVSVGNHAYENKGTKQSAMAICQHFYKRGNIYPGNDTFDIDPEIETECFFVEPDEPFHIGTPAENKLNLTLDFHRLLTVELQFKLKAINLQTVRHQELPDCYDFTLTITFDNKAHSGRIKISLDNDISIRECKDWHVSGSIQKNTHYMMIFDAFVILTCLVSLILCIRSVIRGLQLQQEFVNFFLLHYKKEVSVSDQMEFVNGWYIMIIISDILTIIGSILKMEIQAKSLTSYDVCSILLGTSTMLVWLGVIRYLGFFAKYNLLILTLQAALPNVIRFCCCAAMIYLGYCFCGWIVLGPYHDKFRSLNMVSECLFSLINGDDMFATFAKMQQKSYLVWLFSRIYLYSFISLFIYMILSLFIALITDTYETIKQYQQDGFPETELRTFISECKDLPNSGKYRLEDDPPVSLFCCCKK

[34] = ZM109 Env clade C HIV-1 fusion inhibitors, dose response, HeLa effector, CEM target cells, luciferase, cherry-pick (AID 652058); type: functional, cell-based
[35] = inhibitors of clade B AD8 Env fusion, dose response, cell-based, cherry-pick (AID 652062); type: functional;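 also: luciferase signal from cell-cell fusion driven by HIV-1 clade B AD8 Env; potency is for inhibitors of fusion seen as a drop in luminescence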
[36] = inhibitors of HIV Env-driven cell fusion, dose response, cherry-pick (AID 652057); type: functional, cell-based

## CC(C)NC(=S)N/N=C/c1sc(N2CCCCC2)nc1-c1cccs1
[1]
  EC50: > 100 µM (active)
[2]
  IC50: 20.1 µM (active)
[3]
  IC50: 9.24 µM (active)
[4]
  IC50: 9.6 µM (active)

## Cc1cc(C(=O)CN(C)CC(=O)NC(C)C)c(C)n1Cc1ccccc1
[5]
  EC50: > 30 µM (not active)

## COc1ccccc1NC(=O)Nc1nc(CC(=O)N2CCN(c3ccccc3F)CC2)cs1
[6]
  IC50: > 100 µM (active)
[7]
  CC50: > 40 µM (active)

## CC1=CC2=NC(=O)/C(=C\c3cn(C)c4ccccc34)C(=N)N2O1
[8]
  IC50: 8.61 µM (active)
[9]
  IC50: > 111 µM (not active)

## O=C(c1cccc(COc2ccc(Cl)cc2Cl)c1)N1CCN(c2ccccn2)CC1
[10]
  EC50: 0.251 µM (active)
[11]
  EC50: < 0.1 µM (inconclusive)
[12]
  EC50: > 50 µM (not active)
[13]
  EC50: 46.5 µM (active)
[14]
  IC50: > 50 µM (not active)
[15]
  EC50: 0.242 µM (active)
[16]
  EC50: 0.275 µM (active)

## c1ccc2c(c1)Nc1ccccc1S2 [PHENOTHIAZINE]
[17]
  IC50: 18.5 µM (active)
[18]
  IC50: 0.349 µM (active)
[19]
  IC50: 0.369 µM (active)

## COc1ccc(Sc2ccc(NC(=O)c3ccccc3Cl)cc2C#N)cc1
[20]
  AC50: 2.51 µM (inconclusive)
[21]
  EC50: 4.98 µM (active)
[22]
  EC50: 1.21 µM (active)
[23]
  IC50: > 9.26 µM (active)
[24]
  EC50: 3.14 µM (active)
[25]
  EC50: > 150 µM (not active)
[26]
  EC50: > 500 µM (not active)
[27]
  IC50: > 109 µM (inactive)
[28]
  EC50: 2.27 µM (active)

## O=C(Nc1ccccc1)C(c1ccccc1)C1CCCC1 (stereo unspecified)
[29]
  IC50: 12.1 µM (not active)
[30]
  IC50: 6.6 µM (active)

## Cc1cc(C)c(S(=O)(=O)N2CCCCC2)cc1N(C)S(=O)(=O)c1ccc(Cl)cc1
[31]
  AC50: 11.2 µM (active)
[32]
  EC50: > 29.9 µM (not active)
[33]
  EC50: 1.37 µM (active)
[34]
  AC50: 7.77 µM (active)
[35]
  AC50: 8.27 µM (active)
[36]
  AC50: 5.6 µM (active)
